The values that follow come from patent US11648254B2 (Kumquat Biosciences Inc., priority 2021, dated 2023).

The target of assay [1] is SOS1 (Homo sapiens (Human), UniProt Q07889). The assay is described as follows: Ras-SOS interaction assay (HTRF). The format is biochemical. For orientation: TR-FRET usually uses a lanthanide donor and a delayed reading to cut background.
The test system of assay [2] is MIA PaCa-2 cells (K-Ras G12C). Kind of assay: Ras-SOS cellular growth inhibition assay (CellTiter-Glo, 3D). The assay is classed as cell-based. The note with it: Homo sapiens. The procedure: MIA PaCa-2 (ATCC CRL-1420) and NCI-H1792 (ATCC CRL-5895) cell lines comprise a G12C mutation can be used to assess Ras cellular signaling in vitro, e.g., in response to a subject compound of the present disclosure. […] Cell culture medium (comprising, for example, MIA PaCa-2 cells) is prepared with DMEM/Ham's F12 (e.g., with stable Glutamine, 10% FCS, and 2.5% Horse Serum. NCI-H1792 culture medium is prepared with RPMI 1640 (e.g., with stable Glutamine) and 10% FCS. A CellTiter-Glo (CTG) luminescent based assay (Promega) is used to assess growth of the cells, as a measurement of the ability of the compounds herein to inhibit Ras signaling in the cells. The cells (e.g., 800-1200 per well) are seeded in their respective culture medium in standard tissue culture-treated ultra-low attachment surface 96-well format plates (Corning Costar #3474). The day after plating, cells are treated with a dilution series (e.g., a 9 point 3-fold dilution series) of the compounds herein (e.g., approximately 125 μl final volume per well). Cell viability can be monitored (e.g., approximately 5 days later) according to the manufacturer's recommended instructions, where the CellTiter-Glo reagent is added (e.g., approximately 65 μl), vigorously mixed, covered, and placed on a plate shaker (e.g., approximately for 20 min) to ensure sufficient cell lysis prior to assessment of luminescent signal. The IC50 values are determined using the four-parameter fit. The resulting IC50 value is a measurement of the ability of the compounds herein to reduce cell growth of Ras-driven cells as representative tumor cells.
(ATP-based viability assays read luminescence as a measure of living cells.)

Assay [3] deals with NCI-H1975 cells (EGFR T790M L858R). Kind of assay: EGFR-SOS cellular inhibition assay (CellTiter-Glo, 3D). The assay is classed as cell-based. To be noted: Homo sapiens.
The mark [4] stands for this setting: K-RasG13D utilized, read-out: IC50 inhibition of SOS.
The mark [5] stands for this setting: K-RasG13D, read-out: IC50 value against SOS1.
The mark [6] stands for this setting: MIA PaCa-2, 120 h, MIA PaCa-2, 3D proliferation, about 5 days, read-out: Bio-Cell-Prolif-3D (MiaPaca2 IC50).
The mark [7] stands for this setting: MIA PaCa-2, MIA PaCa-2, read-out: IC50 in inhibiting MIA PaCa-2 cell growth.
[8] abbreviates: 120 h, NCI-H1975, 3D proliferation, about 5 days, read-out: Bio-Cell-Prolif-3D (H1975 IC50).
Setting [9] is: NCI-H1975, EGFR T790M L858R, read-out: IC50 in inhibiting growth of NCI-H1975 cell line.

Like-named read-outs stand apart in the source and are kept apart here.

Sequence of SOS1 (Q07889 564-1049): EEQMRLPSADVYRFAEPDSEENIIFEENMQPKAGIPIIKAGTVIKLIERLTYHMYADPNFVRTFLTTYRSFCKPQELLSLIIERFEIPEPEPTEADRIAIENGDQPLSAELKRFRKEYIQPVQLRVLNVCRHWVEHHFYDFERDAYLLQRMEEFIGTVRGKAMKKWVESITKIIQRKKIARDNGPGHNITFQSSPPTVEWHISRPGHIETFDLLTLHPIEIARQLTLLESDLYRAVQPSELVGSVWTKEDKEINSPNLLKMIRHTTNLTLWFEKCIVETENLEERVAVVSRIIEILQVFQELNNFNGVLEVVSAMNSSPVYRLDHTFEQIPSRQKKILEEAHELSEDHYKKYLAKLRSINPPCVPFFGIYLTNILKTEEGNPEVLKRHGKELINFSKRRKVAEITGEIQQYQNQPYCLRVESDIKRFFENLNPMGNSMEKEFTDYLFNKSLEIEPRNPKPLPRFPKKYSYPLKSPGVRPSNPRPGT

One may read the IC50 as the concentration that gives 50% inhibition. Turning to `COc1nc2nc(C)nc(N[C@H](C)c3cccc(C(F)F)c3F)c2cc1C1CCN(C(C)C)CC1` [Compound 112, (R)-N-(1-(3-(difluoromethyl)-2-fluorophenyl)ethyl)-6-(1-isopropylpiperidin-4-yl)-7-methoxy-2-methylpyrido[2,3-d]pyrimidin-4-amine], the IC50 is less than 100 nM in assay [1] (setting [4]); less than 50 nM in assay [1] (setting [5]); not above 1000 nM in assay [2] (setting [6]); less than 500 nM in assay [2] (setting [7]); not above 1000 nM in assay [3] (setting [8]); less than 500 nM in assay [3] (setting [9]).

As to `COc1nc2nc(C)nc(N[C@H](C)c3cccc(C(F)F)c3F)c2cc1C1CCN(C)CC1` [Compound 113, (R)-N-(1-(3-(difluoromethyl)-2-fluorophenyl)ethyl)-7-methoxy-2-methyl-6-(1-methylpiperidin-4-yl)pyrido[2,3-d]pyrimidin-4-amine], the IC50 in assay [1] (setting [4]) was less than 100 nM; in assay [1] (setting [5]), less than 50 nM; in assay [2] (setting [6]) it was not above 1000 nM; in assay [2] (setting [7]), less than 500 nM; in assay [3] (setting [8]), not above 1000 nM; in assay [3] (setting [9]), less than 500 nM.

Take `COc1nc2nc(C)nc(N[C@H](C)c3cccc(C(F)F)c3F)c2cc1S(=O)(=O)N1CCNCC1` [Compound 114, (R)-N-(1-(3-(difluoromethyl)-2-fluorophenyl)ethyl)-7-methoxy-2-methyl-6-(piperazin-1-ylsulfonyl)pyrido[2,3-d]pyrimidin-4-amine]: the IC50 is less than 100 nM in assay [1] (setting [4]), less than 50 nM in assay [1] (setting [5]), not above 1000 nM in assay [2] (setting [6]) and not above 1000 nM in assay [3] (setting [8]).

Consider `CCN1CCN(c2cc3c(N[C@H](C)c4cccc(C(F)F)c4F)nc(C)nc3nc2OC)CC1` [Compound 115, (R)-N-(1-(3-(difluoromethyl)-2-fluorophenyl)ethyl)-6-(4-ethylpiperazin-1-yl)-7-methoxy-2-methylpyrido[2,3-d]pyrimidin-4-amine], for which the IC50 is less than 100 nM in assay [1] (setting [4]); less than 50 nM in assay [1] (setting [5]); not above 1000 nM in assay [2] (setting [6]); less than 500 nM in assay [2] (setting [7]); not above 1000 nM in assay [3] (setting [8]).

Consider `COc1nc2nc(C)nc(N[C@H](C)c3cccc(C(F)F)c3F)c2cc1C1CCN(C(=O)NC2COC2)CC1` [Compound 116, (R)-4-(4-((1-(3-(difluoromethyl)-2-fluorophenyl)ethyl)amino)-7-methoxy-2-methylpyrido[2,3-d]pyrimidin-6-yl)-N-(oxetan-3-yl)piperidine-1-carboxamide], for which the 50% inhibitory concentration (IC50) in assay [1] (setting [5]) was less than 50 nM; in assay [2] (setting [6]), not above 1000 nM; in assay [3] (setting [8]), not above 1000 nM.

Take `COc1nc2nc(C)nc(N[C@H](C)c3cccc(C(F)F)c3F)c2cc1C1(C#N)CCN(C(C)C)CC1` [Compound 117, (R)-4-(4-((1-(3-(difluoromethyl)-2-fluorophenyl)ethyl)amino)-7-methoxy-2-methylpyrido[2,3-d]pyrimidin-6-yl)-1-isopropylpiperidine-4-carbonitrile]: the IC50 was less than 100 nM in assay [1] (setting [4]); less than 50 nM in assay [1] (setting [5]); not above 1000 nM in assay [2] (setting [6]); not above 1000 nM in assay [3] (setting [8]); less than 500 nM in assay [3] (setting [9]).

Consider `CCN1CCC(c2cc3c(N[C@H](C)c4cccc(C(F)F)c4F)nc(C)nc3nc2OC)CC1` [Compound 119, (R)-N-(1-(3-(difluoromethyl)-2-fluorophenyl)ethyl)-6-(1-ethylpiperidin-4-yl)-7-methoxy-2-methylpyrido[2,3-d]pyrimidin-4-amine], for which the 50% inhibitory concentration (IC50) in assay [1] (setting [4]) was less than 100 nM; in assay [1] (setting [5]) it was less than 50 nM; in assay [2] (setting [6]), not above 1000 nM; in assay [2] (setting [7]) it was less than 500 nM; in assay [3] (setting [8]), not above 1000 nM; in assay [3] (setting [9]), less than 500 nM.

In the case of `COc1nc2nc(C)nc(N[C@H](C)c3cccc(C(F)F)c3F)c2cc1N1CCN(C)CC1` [Compound 123, (R)-N-(1-(3-(difluoromethyl)-2-fluorophenyl)ethyl)-7-methoxy-2-methyl-6-(4-methylpiperazin-1-yl)pyrido[2,3-d] pyrimidin-4-amine], the IC50 in assay [1] (setting [5]) is less than 50 nM; in assay [2] (setting [6]), not above 1000 nM; in assay [2] (setting [7]), less than 500 nM; in assay [3] (setting [8]) it was not above 1000 nM.

Take `COc1nc2nc(C)nc(N[C@H](C)c3cccc(C(F)F)c3F)c2cc1[C@H]1C[C@@H](NC(=O)C2COC2)C1` [Compound 125, N-((1S,3s)-3-(4-(((R)-1-(3-(difluoromethyl)-2-fluorophenyl)ethyl)amino)-7-methoxy-2-methylpyrido[2,3-d]pyrimidin-6-yl)cyclobutyl)oxetane-3-carboxamide]: the concentration for half-maximal inhibition (IC50) is less than 50 nM in assay [1] (setting [5]); not above 1000 nM in assay [2] (setting [6]); less than 500 nM in assay [2] (setting [7]); not above 1000 nM in assay [3] (setting [8]); less than 500 nM in assay [3] (setting [9]).

For the compound `COc1nc2nc(C)nc(N[C@H](C)c3cccc(C(F)F)c3F)c2cc1C1(C#N)CCS(=O)(=O)CC1` [Compound 126, (R)-4-(4-((1-(3-(difluoromethyl)-2-fluorophenyl)ethyl)amino)-7-methoxy-2-methylpyrido[2,3-d]pyrimidin-6-yl)tetrahydro-2H-thiopyran-4-carbonitrile 1,1-dioxide], the IC50 in assay [1] (setting [4]) is less than 100 nM; in assay [1] (setting [5]) it was less than 50 nM; in assay [2] (setting [6]) it was not above 1000 nM; in assay [3] (setting [8]), not above 1000 nM; in assay [3] (setting [9]) it was less than 500 nM.

`COc1nc2nc(C)nc(N[C@H](C)c3cccc(C(F)F)c3F)c2cc1C1=CCS(=O)(=O)CC1` [Compound 127, (R)-4-(4-((1-(3-(difluoromethyl)-2-fluorophenyl)ethyl)amino)-7-methoxy-2-methylpyrido[2,3-d]pyrimidin-6-yl)-3,6-dihydro-2H-thiopyran 1,1-dioxide]: the IC50 in assay [1] (setting [4]) was less than 100 nM; in assay [1] (setting [5]), less than 50 nM; in assay [2] (setting [6]), not above 1000 nM; in assay [2] (setting [7]), less than 500 nM; in assay [3] (setting [8]) it was not above 1000 nM; in assay [3] (setting [9]) it was less than 500 nM.

As for `COc1nc2nc(C)nc(N[C@H](C)c3cccc(C(F)F)c3F)c2cc1C1(C#N)CCN(C)CC1` [Compound 128, (R)-4-(4-((1-(3-(difluoromethyl)-2-fluorophenyl)ethyl)amino)-7-methoxy-2-methylpyrido[2,3-d]pyrimidin-6-yl)-1-methylpiperidine-4-carbonitrile], the IC50 in assay [1] (setting [4]) was less than 100 nM; in assay [1] (setting [5]), less than 50 nM; in assay [2] (setting [6]), not above 1000 nM; in assay [2] (setting [7]), less than 500 nM; in assay [3] (setting [8]) it was not above 1000 nM.

For the compound `CNCCN1CCC(c2cc3c(N[C@H](C)c4cccc(C(F)F)c4F)nc(C)nc3nc2OC)CC1` [Compound 129, (R)-N-(1-(3-(difluoromethyl)-2-fluorophenyl)ethyl)-7-methoxy-2-methyl-6-(1-(2-(methyl-12-azaneyl)ethyl)piperidin-4-yl)pyrido[2,3-d]pyrimidin-4-amine], the IC50 in assay [1] (setting [4]) was less than 100 nM; in assay [1] (setting [5]), less than 50 nM; in assay [2] (setting [6]), not above 1000 nM; in assay [3] (setting [8]) it was 1000 to 10000 nM.

Take `COc1nc2nc(C)nc(N[C@H](C)c3cccc(C(F)F)c3F)c2cc1C1CCN(CCO)CC1` [Compound 130, (R)-2-(4-(4-((1-(3-(difluoromethyl)-2-fluorophenyl)ethyl)amino)-7-methoxy-2-methylpyrido[2,3-d]pyrimidin-6-yl)piperidin-1-yl)ethan-1-ol]: the 50% inhibitory concentration (IC50) in assay [1] (setting [4]) is less than 100 nM; in assay [1] (setting [5]), less than 50 nM; in assay [2] (setting [6]) it was not above 1000 nM; in assay [2] (setting [7]) it was less than 500 nM; in assay [3] (setting [8]), not above 1000 nM; in assay [3] (setting [9]), less than 500 nM.

As to `Cc1nc(N[C@H](C)c2cccc(C(F)F)c2F)c2cc(S(=O)(=O)C3CCN(C)CC3)c(Cl)nc2n1` [Compound 132, (R)-7-chloro-N-(1-(3-(difluoromethyl)-2-fluorophenyl)ethyl)-2-methyl-6-((1-methylpiperidin-4-yl)sulfonyl)pyrido[2,3-d]pyrimidin-4-amine], the IC50 in assay [1] (setting [5]) was less than 50 nM; in assay [2] (setting [6]) it was not above 1000 nM; in assay [2] (setting [7]), less than 500 nM; in assay [3] (setting [8]), not above 1000 nM; in assay [3] (setting [9]) it was less than 500 nM.

Consider `COc1nc2nc(C)nc(N[C@H](C)c3cccc(C(F)F)c3F)c2cc1S(=O)(=O)C1CCN(C)CC1` [Compound 133, (R)-N-(1-(3-(difluoromethyl)-2-fluorophenyl)ethyl)-7-methoxy-2-methyl-6-((1-methylpiperidin-4-yl)sulfonyl)pyrido[2,3-d]pyrimidin-4-amine], for which the IC50 in assay [1] (setting [4]) was less than 100 nM; in assay [1] (setting [5]) it was less than 50 nM; in assay [2] (setting [6]), not above 1000 nM; in assay [2] (setting [7]), less than 500 nM; in assay [3] (setting [8]), not above 1000 nM; in assay [3] (setting [9]), less than 500 nM.
